In patent US20060205772A1, “Amide derivatives and their use as inhibitors of 11-beta-hydroxysteroid dehydrogenase type I” (priority 2003, published 2006):

How the values were obtained:
[1] = tested on: corticosterone production in adrenalectomized (ADX) mice; experiment: inhibition of corticosterone production in adrenalectomized (ADX) mice; format: in vivo; conditions: Mus musculus, po; ADX CD1 mice, orally 25 mg/kg each at 2 and 4 h before sacrifice; liver corticosterone
Experimental: Inhibition of corticosterone production in adrenalectomized (ADX) mice is determined as follows:
Bilateral adrenalectomy is performed in male mice of the CD1 strain (6 to 8 weeks of age, 25-30 g body weight) through a lumbar laparotomy. After 10 days the animals are fasted for 24 h. Compounds are administered orally at 25 mg/kg each at 2 and 4 h before sacrifice. A second group of animals receives carbenoxolone at the same dose, and a third group receives the vehicle (cornstarch). Homogenized liver samples are used to measure corticosterone concentration which is determined by radioimmunoassay and is expressed as pg of corticosterone per mg of liver protein.

[2] = molecular target: T1, human recombinant 11β-HSD1 (Homo sapiens, UniProt P28845); experiment: in vitro inhibition of human recombinant 11β-HSD1 (Pichia pastoris microsomes, [3H]cortisone to [3H]cortisol); format: biochemical; conditions: recombinant human 11β-HSD1 microsomes, 500 nM cortisone mixture, NADPH, 90 min at 37° C.
T1 construct: made in house; host or cells: Pichia pastoris (microsomal fraction)
Experimental: The in vitro inhibition of human recombinant 11β-HSD1 is determined as follows:
Recombinant human 11β-HSD1 is expressed in yeast Pichia pastoris. Cultures are grown at 30° C. for 3 days in the presence of methanol to induce enzyme expression. The microsomal fraction overexpressing 11β-HSD1 is prepared from the cell homogenate and used as the enzyme source for primary screening. A test compound at the desired concentration is preincubated for 10 min at RT with 3 μg of the microsomal protein in 50 mM sodium phosphate, pH 7.5, in a total volume of 80 μL. The enzyme reaction is initiated by adding 20 μL of a mixture containing 5 mM NADPH, 500 nM cortisone, and 80,000 dpm of [^3H]cortisone in the same buffer and is terminated by ethyl acetate after incubation for 90 min at 37° C. The production of [^3H]cortisol is quantitated upon separation from [^3H]cortisone by a C18 column on HPLC equipped with a radioactivity detector. Glycerrhetinic acid, a known inhibitor of 11β-HSD1, is used as a standard.

human 11β-HSD2 = molecular target: T2, human 11β-HSD2 (Homo sapiens, UniProt P80365); experiment: in vitro inhibition of human 11β-HSD2 (SW-620 cell lysates, [3H]cortisol to [3H]cortisone); format: biochemical
T2 construct: using lysates of SW-620 cells as the enzyme source; host or cells: SW-620 human colon carcinoma cells (lysate)
T2 sequence (P80365 1-405): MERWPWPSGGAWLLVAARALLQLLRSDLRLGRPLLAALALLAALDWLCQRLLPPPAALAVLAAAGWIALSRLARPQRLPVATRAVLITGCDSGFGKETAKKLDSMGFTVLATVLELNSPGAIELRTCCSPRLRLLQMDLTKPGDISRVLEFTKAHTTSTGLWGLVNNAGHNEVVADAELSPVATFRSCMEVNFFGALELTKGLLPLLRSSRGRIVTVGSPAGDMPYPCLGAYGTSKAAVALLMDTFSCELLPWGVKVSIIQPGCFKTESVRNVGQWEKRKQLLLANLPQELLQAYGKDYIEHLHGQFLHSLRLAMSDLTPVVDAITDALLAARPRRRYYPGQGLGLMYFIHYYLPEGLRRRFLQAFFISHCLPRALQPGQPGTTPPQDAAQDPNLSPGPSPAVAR
Experimental: The in vitro inhibition of human 11β-HSD2 is determined as follows:
The SW-620 human colon carcinoma cell line is obtained from the American Type Culture Collection (ATCC). Cells are plated at a density of 8-10×10^4 cells/cm^2 in DMEM/F12 containing 5% BCS, 100 U/mL penicillin, 100 μg/mL streptomycin and […] amphotericin B. Cultures are grown to 80-90% confluence in a humidified, atmosphere of 5% CO2 at 37° C. The medium is changed to serum-free, phenol red-free DMEM/F12 at 24 h before harvesting the cells.
After 24 h in serum-free medium, cultured SW-620 cells are rinsed and scraped in Kreb's-Ringer buffer, pH 7.4, containing 1 mM EDTA, 2 μg/mL aprotinin, 10 μM leupeptin and 1 μM pepstatin. After sonication (30 seconds) and low speed centrifugation (2,000 rpm, 5 min) to remove cellular debris, the supernatant is collected and used to determine enzyme activity and protein concentration (BCA, Pierce, Rockford, Ill.).
Dehydrogenase activity is quantified by measuring the conversion of [^3H]cortisol to [^3H]cortisone using lysates of SW-620 cells as the enzyme source. The assay is performed in tubes containing Kreb's-Ringer buffer pH 7.4, with 0.20 mM NAD and 200,000 dpm of [^3H]cortisol and a test compound in a total volume of 1 mL. The tubes are preincubated for 10 min at 37° C. before adding 200 μg of cell lysates to start the reaction. After incubation for 1 h at 37° C. in a shaking water bath, the mixture is extracted with 2 volumes of ethyl acetate and centrifuged for 10 min at 2,000 rpm. The organic layer is collected, dried under vacuum and resuspended in methanol. The dissolved residues are quantitatively transferred to thin layer plates and developed in chloroform-methanol (90:10). Unlabeled cortisol and cortisone were used as reference markers. The TLC plates are scanned on a Bioscan radioimaging detector (Bioscan, Washington, D.C.), and the fractional conversion of cortisol to cortisone is calculated. Enzyme activity is expressed as pmoles of product formed per mg protein per hour. Carbenoxolone and glycyrrhetinic acid are used as standards.

cellular 11β-HSD1 = molecular target: T3, cellular 11β-HSD1 (Rattus norvegicus, UniProt P16232); experiment: inhibition of cellular 11β-HSD1 activity in primary rat hepatocytes; format: cell-based; conditions: 2 h incubation
T3 construct: Enzyme activity is measured in the medium of primary cultures of rat hepatocytes 48 h after plating the cells; endogenous in cells; host or cells: primary hepatocytes of male Sprague-Dawley rats
Experimental: The inhibition of cellular 11β-HSD1 activity in primary rat hepatocytes is determined as follows:
Male Sprague-Dawley rats weighing 180-200 g are anesthetized with sodium pentobarbital (65 mg/kg). The liver is perfused in situ with calcium-free Earl's Balanced Salt Solution (EBSS) followed by EBSS containing 100-150 U/mL of collagenase, 1.8 mM CaCl2 and 10 mM HEPES, pH 7.4. The perfused liver is removed and aseptically placed in warm William's Medium E containing 10% BCS. After decapsulation, the organ is transferred to fresh medium and gently shaken to facilitate tissue dissociation and cell release. Hepatocytes are separated from nonparenchymal and dead cells by repeated low speed centrifugation. Cell viability is determined by trypan blue exclusion.
Hepatocytes are plated on collagen coated dishes at a density of 1×10^5 cells/cm^2 in William's medium E containing 10% BCS, 100 U/mL penicillin, 100 μg/mL streptomycin, 0.25 μg/mL amphotericin B, 2 mM L-glutamine, 10 mM HEPES, 100 nM insulin and 1 nM dexamethasone. After 1 h the medium is changed to serum-free William's medium E supplemented as described above. Thereafter, the medium is replaced every 24 h. The cultures are maintained in a humidified atmosphere of 5% CO2 at 37° C.
Enzyme activity is measured in the medium of primary cultures of rat hepatocytes 48 h after plating the cells. The medium is aspirated and replaced with serum-free William's medium E containing 2 nM [^3H]11-dehydrocorticosterone and a test compound and is incubated for 2 h. An aliquot of culture medium is removed at the end of the incubation and the mixture is extracted with 2 volumes of ethyl acetate, dried under vacuum and resuspended in methanol. The dissolved residues are quantitatively transferred to thin layer plates and developed in chloroform-methanol (90:10). The TLC plates are scanned on a Bioscan imaging detector and the fractional conversion of 11-dehydrocorticosterone to corticosterone is calculated. The cell layer is rinsed with cold phosphate-buffered saline and dissolved in 0.1 N NaOH/5% SDS for the determination of cellular protein (BCA, Pierce, Rockford, Ill.). Enzyme activity is expressed as pmoles of product formed per mg protein per hour.

T3 sequence (P16232 whole entry): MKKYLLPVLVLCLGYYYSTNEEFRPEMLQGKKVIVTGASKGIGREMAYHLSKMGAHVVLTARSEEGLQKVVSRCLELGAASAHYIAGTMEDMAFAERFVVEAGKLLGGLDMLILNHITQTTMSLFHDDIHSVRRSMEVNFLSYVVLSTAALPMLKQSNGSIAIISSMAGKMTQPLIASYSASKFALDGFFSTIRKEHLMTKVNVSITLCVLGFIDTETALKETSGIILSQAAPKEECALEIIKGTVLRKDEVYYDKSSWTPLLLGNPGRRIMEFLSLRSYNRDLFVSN
T1 sequence (P28845 whole entry): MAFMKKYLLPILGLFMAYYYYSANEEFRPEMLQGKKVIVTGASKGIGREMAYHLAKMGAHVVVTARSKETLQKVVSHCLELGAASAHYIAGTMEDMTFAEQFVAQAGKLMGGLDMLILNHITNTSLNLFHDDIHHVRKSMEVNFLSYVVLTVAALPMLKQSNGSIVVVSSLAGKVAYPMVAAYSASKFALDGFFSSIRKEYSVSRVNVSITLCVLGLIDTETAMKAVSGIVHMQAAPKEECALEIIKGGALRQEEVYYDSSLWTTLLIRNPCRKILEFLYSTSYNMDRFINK

| IC50 [2] | inhibition at 10 µM (human 11β-HSD2) | inhibition at 1 µM (cellular 11β-HSD1) | melting point | SMILES | change in vivo at 25 mg/kg [1] |
| --- | --- | --- | --- | --- | --- |
| 770 nM | 29% | 75% | – | COC(=O)Nc1ccc(C(=O)N2CC[C@H]3CCCC[C@H]3C2)c(OC)c1 [Example 48-37] | -69% |
| – | – | – | 183 to 184 °C | O=C(Nc1ccc(C(=O)N2CCC[C@H]3CC(O)CC[C@@H]32)cc1)c1ccc(Cl)cc1Cl (relative stereo) [Example 41, 2,4-Dichloro-N-[4-((4aS*,6S*,8aS*)-6-hydroxy-octahydro-1(2H)-quinoline-1-carbonyl)-phenyl]-benzamide] | – |
| – | – | – | 144 to 145 °C | O=C(Nc1ccc(C(=O)N2CCC[C@H]3CCCC[C@@H]32)cn1)c1ccc(F)cc1 (racemic) [Example 26, 4-Fluoro-N-{5-[(4aS*,8aR*)-octahydro-1(2H)-quinoline-1-carbonyl]-pyridin-2-yl}-benzamide] | – |
| – | – | – | 85 to 100 °C | CN(C(=O)c1ccc(NC(=O)c2ccc(Cl)cc2Cl)cc1)C1CC2CCC1C2 (stereo not shown) [Example 8-9] | – |
| – | – | – | 251 to 260 °C | COc1ccc(C(=O)Nc2ccc(C(=O)N3CCC[C@H]4CCCC[C@@H]43)c3ccccc23)cc1OC (racemic) [Example 27, 3,4-Dimethoxy-N-{4-[(4aS*,8aR*)-octahydro-1(2H)-quinoline-1-carbonyl]-naphthalen-1-yl}-benzamide] | – |
| 262 nM | 45% | 84% | – | O=C(NCc1ccc(F)cc1)N1CCc2cc(C(=O)N3CCC[C@H]4CCCC[C@H]43)ccc21 [Example 33-21] | -71% |
| 2120 nM | 49% | 71% | – | COc1ccccc1CNC(=O)c1ccc(C(=O)N2CCC[C@@H]3CCCC[C@@H]32)cc1 [Example 23-47] | -61% |
| – | – | – | 158 to 160 °C | CN(CC1CCCCC1)C(=O)c1ccc(NC(=O)c2ccc(F)cc2)cc1 [Example 1, N-Cyclohexylmethyl-4-fluorobenzoylamino-N-methylbenzamide] | – |
| 563 nM | 2% | 90% | – | O=C(Nc1ccc(C(=O)N2CCC[C@@H]3CCCC[C@@H]32)cc1)c1ccc(F)cc1 [Example 11-13] | -73% |
| 180 nM | 10% | 49% | – | Cn1c(C(=O)N2CCC[C@@H]3CCCC[C@H]32)cc2ccccc21 (relative stereo) [Example 38, (1-Methyl-1H-indol-2-yl)-(4aS*,8aR*)-octahydro-1(2H)-quinolin-1-yl-methanone] | -62% |
| 7.7 nM | 34% | 76% | – | O=C(c1ccc(-c2ccccc2[N+](=O)[O-])o1)N1CCC[C@@H]2CCCC[C@@H]21 [Example 35-15] | -67% |
| – | – | – | 62 to 64 °C | O=C(Nc1cccc(-c2ccc(C(=O)N3CCC[C@H]4CCCC[C@@H]43)o2)c1)c1ccccc1 (racemic) [Example 34, N-{3-[5-((4aS*,8aR*)-Octahydro-1(2H)-quinoline-1-carbonyl)-furan-2-yl]-phenyl}-benzamide] | – |
| – | – | – | 202 to 203 °C | O=C(Nc1ccc(C(=O)N2CCC[C@H]3CCCC[C@@H]32)cn1)c1ccc(Cl)cc1Cl (racemic) [Example 25, 2,4-Dichloro-N-{5-[(4aS*,8aR*)-octahydro-1(2H)-quinoline-1-carbonyl]-pyridin-2-yl}-benzamide] | – |
| – | – | – | 98 to 100 °C | CC1=C(C(=O)N2CCC[C@@H]3CCCC[C@H]32)Cc2ccccc21 (racemic) [Example 36, (3-Methyl-H-inden-2-yl)-(4aS*,8aR*)-octahydro-1(2H)-quinolin-1-yl-methanone] | – |
| – | – | – | 199 to 203 °C | Cc1ccc(NC(=O)c2ccc(C(=O)N3CCC[C@H]4CCCC[C@@H]43)cc2)cc1 (racemic) [Example 22, 4-[(4aS*,8aR*)-Octahydro-1(2H)-quinoline-1-carbonyl]-N-p-tolylbenzamide] | – |
| – | – | – | 80 to 90 °C | C[C@H]1CCCC[C@@H]1N(C)C(=O)c1ccc(NC(=O)c2ccc(Cl)cc2Cl)cc1 [Example 8-8] | – |
| – | – | – | 220 to 221 °C | CC1(C)CC[C@H]2[C@@H](CCCN2C(=O)c2ccc(NC(=O)c3ccc(Cl)cc3Cl)cc2)C1 (racemic) [Example 44, 2,4-Dichloro-N-[4-((4aS*,8aS*)-6,6-dimethyl-octahydro-1(2H)-quinoline-1-carbonyl)-phenyl]-benzamide] | – |
| 6.5 nM | 11% | 54% | – | CC1=C(C(=O)N(C)CC23CC4CC(CC(C4)C2)C3)Cc2ccccc21 [Example 8-6] | -57% |
| 1000 nM | 26% | 80% | – | CN(CC1CCCCC1)C(=O)c1ccc(NC(=O)c2ccc(F)cc2)cc1Cl [Example 3-11] | -69% |
